Consider 36 compounds from US7109186B2 (Bristol-Myers Squibb Company, priority 2002, dated 2006).

For orientation: melting point means the temperature of the solid-liquid transition. For orientation: inhibition means the drop in the measured response relative to a control, in per cent.

System in the first data set: not given
Experiment: not given
Details: not given
Take `CON(Cc1ccc(F)cc1)C(=O)C1=C(O)C(=O)N(C)C1`: the melting point was 125 °C (dec.).

Regarding `CN1CC(C(=O)N(C)Cc2ccc(C(F)(F)F)cc2)=C(O)C1=O`, the melting point lay in the range of 126 to 128 °C.

As to `CON(Cc1ccc(C(F)(F)F)cc1)C(=O)C1=C(O)C(=O)N(C)C1`, the melting point was 145 °C (dec.).

`CON(Cc1ccc(C(F)(F)F)cc1)C(=O)C1=C(O)C(=O)N(CCN2CCOCC2)C1`: the melting point was 119 °C (dec.).

As to `CON(Cc1ccc(F)cc1C(F)(F)F)C(=O)C1=C(O)C(=O)N(C)C1`, the melting point was 167 °C (dec.).

On to `CN1CC(C(=O)N(C)CCCc2ccc(F)cc2)=C(O)C1=O`, for which the melting point is 129 °C (dec.).

With `CON(CCCc1ccc(Cl)c(Cl)c1)C(=O)C1=C(O)C(=O)N(C)C1`, the melting point lay within 106 to 108 °C.

Regarding `CN(Cc1ccc(Cl)c(Cl)c1)C(=O)C1=C(O)C(=O)N(C2CC2)C1` [Compound 14, 1-Cyclopropyl-4-hydroxy-5-oxo-2,5-dihydro-1H-pyrrole-3-carboxylic acid (3,4-dichloro-benzyl)-methyl-amide], the melting point fell in the range of 163 to 164 °C.

The target in a further data set is T1, HIV-integrase (Human immunodeficiency virus type 1 group M subtype B, UniProt P04585).
T1 construct: 0.26 ng of recombinant integrase was incubated with the beads for 90 min at 37 C
The experiment in a line: HIV integrase SPA integration assay (biotin-labeled substrate DNA on streptavidin SPA beads, P33-labeled target DNA). The settings on record: percent inhibition of HIV-integrase in the presence of 20 μM of compound. Format: biochemical. Here is the method: For each reaction, 5 pmole of biotin labeled substrate DNA was bound to 100 ug of Streptavidin coated PVT SPA beads (Amersham Pharmacia Biotech). 0.26 ng of recombinant integrase was incubated with the beads for 90 min at 37 C. Unbound enzyme was removed by washing the complex followed by addition of inhibitors and 0.1 fmol of P33 labeled target DNA. Reaction was stopped by adding EDTA to a final concentration of 10 mM. Samples were counted in TopCountNXT (Packard) and the CPM was used as a measure of integration. Reaction condition was as described in A. Engelman and R. Craigie, J. Virol. 69, 5908–5911 (1995). The sequences of substrate and target DNA were described in Nucleic Acid Research 22, 1121–1122 (1994).
Consider `CN(Cc1ccc(Cl)c(Cl)c1)C(=O)C1=C(O)C(=O)N(C2CC2)C1` [Compound 14, 1-Cyclopropyl-4-hydroxy-5-oxo-2,5-dihydro-1H-pyrrole-3-carboxylic acid (3,4-dichloro-benzyl)-methyl-amide], for which the inhibition at 20 µM amounted to 99.7%.

As to `CC(=O)NCCN1CC(C(=O)N(C)Cc2ccc(Cl)c(Cl)c2)=C(O)C1=O` [Compound 27], the inhibition at 20 µM amounted to 99.9%.

As for `CN(Cc1ccc(Cl)c(Cl)c1)C(=O)C1=C(O)C(=O)N(CCCCCCC(=O)O)C1` [Compound 28, 7-{4-[(3,4-dichloro-benzyl)-methyl-carbamoyl]-3-hydroxy-2-oxo-2,5-dihydro-pyrrol-1-yl}-heptanoic acid], the inhibition at 20 µM was determined as 99.9%.

With `CN(Cc1ccc(Cl)c(Cl)c1)C(=O)C1=C(O)C(=O)N(CCC(=O)NC(Cc2cncn2C)C(=O)O)C1` (stereo not shown) [Compound 29], the inhibition at 20 µM was determined as 99.9%.

Turning to `CN(Cc1ccc(Cl)c(Cl)c1)C(=O)C1=C(O)C(=O)N(CCCn2ccnc2)C1` [Compound 30, 4-Hydroxy-1-(3-imidazol-1-yl-propyl)-5-oxo-2,5-dihydro-1H-pyrrole-3-carboxylic acid (3,4-dichloro-benzyl)-methyl-amide], the inhibition at 20 µM turned out to be 99.9%.

Turning to `CN(Cc1ccc(Cl)c(Cl)c1)C(=O)C1=C(O)C(=O)N(Cc2cccs2)C1` [Compound 31], the inhibition at 20 µM amounted to 99.9%.

Take `CN1CCN(CCN2CC(C(=O)N(C)Cc3ccc(Cl)c(Cl)c3)=C(O)C2=O)CC1` [Compound 32, 4-Hydroxy-1-[2-(4-methyl-piperazin-1-yl)-ethyl]-5-oxo-2,5-dihydro-1H-pyrrole-3-carboxylic acid (3,4-dichloro-benzyl)-methyl-amide]: the inhibition at 20 µM was found to be 99.9%.

Consider `COC(=O)CCCN1CC(C(=O)N(C)Cc2ccc(Cl)c(Cl)c2)=C(O)C1=O` [Compound 33], for which the inhibition at 20 µM worked out at 99.9%.

Regarding `COC(=O)CCN1CC(C(=O)N(C)Cc2ccc(Cl)c(Cl)c2)=C(O)C1=O` [Compound 34, 3-{4-[(3,4-Dichloro-benzyl)-methyl-carbamoyl]-3-hydroxy-2-oxo-2,5-dihydro-pyrrol-1-yl}-propionic acid methyl ester], the inhibition at 20 µM was found to be 99.9%.

`CN(Cc1ccc(Cl)c(Cl)c1)C(=O)C1=C(O)C(=O)N(CC(=O)NCC(=O)NCCC(=O)NCC(=O)O)C1` [Compound 35, {3-[2-(2-{4-[(3,4-Dichloro-benzyl)-methyl-carbamoyl]-3-hydroxy-2-oxo-2,5-dihydro-pyrrol-1-yl}-acetylamino)-acetylamino]-propionylamino}-acetic acid]: the inhibition at 20 µM was 99.9%.

Take `CN(Cc1ccc(Cl)c(Cl)c1)C(=O)C1=C(O)C(=O)N(Cc2ccc(C(=O)O)cc2)C1` [Compound 36, 4-{4-[(3,4-Dichloro-benzyl)-methyl-carbamoyl]-3-hydroxy-2: oxo-2,5-dihydro-pyrrol-1-ylmethyl}-benzoic acid]: the inhibition at 20 µM was 92%.

Regarding `CN(Cc1ccc(Cl)c(Cl)c1)C(=O)C1=C(O)C(=O)N(CCC(=O)NCCC(=O)O)C1` [Compound 37, 3-(3-{4-[(3,4-Dichloro-benzyl)-methyl-carbamoyl]-3-hydroxy-2oxo-2,5-dihydro-pyrrol-1-yl}-propionylamino)-propionic acid], the inhibition at 20 µM is 99.9%.

On to `CN(Cc1ccc(Cl)c(Cl)c1)C(=O)C1=C(O)C(=O)N(CCNC(=O)CCN2CCOCC2)C1` [Compound 38, 4-Hydroxy-1-[2-(3-morpholin-4-yl-propionylamino)-ethyl]-5-oxo-2,5-dihydro-1H-pyrrole-3-carboxylic acid (3,4-dichloro-benzyl)-methyl-amide], for which the inhibition at 20 µM came to 99.9%.

Take `CN(Cc1ccc(Cl)c(Cl)c1)C(=O)C1=C(O)C(=O)N(CCC(=O)NCC(=O)O)C1` [Compound 39, (3-{4-[(3,4-Dichloro-benzyl)-methyl-carbamoyl]-3-hydroxy-2-oxo-2,5-dihydro-pyrrol-1-yl}-propionylamino)-acetic acid]: the inhibition at 20 µM stood at 99.9%.

In the case of `CN(Cc1ccc(Cl)c(Cl)c1)C(=O)C1=C(O)C(=O)N(CCC(N)=O)C1` [Compound 40, 1-(2-Carbamoyl-ethyl)-4-hydroxy-5-oxo-2,5-dihydro-1H-pyrrole-3-carboxylic acid (3,4-dichloro-benzyl)-methyl-amide], the inhibition at 20 µM stood at 99.9%.

In the case of `COC(=O)c1ccc(CN2CC(C(=O)N(C)Cc3ccc(Cl)c(Cl)c3)=C(O)C2=O)cc1` [Compound 41, 4-{4-[(3,4-Dichloro-benzyl)-methyl-carbamoyl]-3-hydroxy-2-oxo-2,5-dihydro-pyrrol-1-ylmethyl}-benzoic acid methyl ester], the inhibition at 20 µM came out at 99.9%.

With `CN(Cc1ccc(Cl)c(Cl)c1)C(=O)C1=C(O)C(=O)N(CCC#N)C1` [Compound 42, 1-(2-Cyano-ethyl)-4-hydroxy-5-oxo-2,5-dihydro-1H-pyrrole-3carboxylic acid (3,4-dichloro-benzyl)-methyl-amide], the inhibition at 20 µM amounted to 99.9%.

In the case of `CN(Cc1ccc(Cl)c(Cl)c1)C(=O)C1=C(O)C(=O)N(CCCN2CCOCC2)C1` [Compound 43, 4-Hydroxy-1-(3-morpholin-4-yl-propyl)-5-oxo-2,5-dihydro-1H-pyrrole-3-carboxylic acid (3,4-dichloro-benzyl)-methyl-amide], the inhibition at 20 µM is 99.9%.

Take `CON(Cc1ccc(F)cc1)C(=O)C1=C(O)C(=O)N(CCN2CCOCC2)C1` [Compound 45, 4-Hydroxy-1-(2-morpholino-4-yl-ethyl)-5-oxo-2,5-dihydro-1H-pyrrole-3-carboxylic acid (4-fluoro-benzyl)-methoxy-amide]: the inhibition at 20 µM worked out at 99.5%.

On to `CON(Cc1ccc(F)cc1)C(=O)C1=C(O)C(=O)N(CCN2CCNCC2)C1` [Compound 46, 4-Hydroxy-5-oxo-1-(2-piperazin-1-yl-ethyl)-2,5-dihydro-1H-pyrrole-3-carboxylic acid (4-fluoro-benzyl)-methoxy-amide], for which the inhibition at 20 µM was determined as 99.3%.

For the compound `CON(Cc1ccc(F)cc1F)C(=O)C1=C(O)C(=O)N(C)C1` [Compound 60, 4-Hydroxy-1-methyl-5-oxo-2,5-dihydro-1H-pyrrole-3-carboxylic acid (2,4-difluoro-benzyl)-methoxy-amide], the inhibition at 20 µM was 99.7%.

For the compound `CON(Cc1ccc(F)c(C#N)c1)C(=O)C1=C(O)C(=O)N(C)C1` [Compound 61, 4-Hydroxy-1-methyl-5-oxo-2,5-dihydro-1H-pyrrole-3-carboxylic acid (3-cyano-4-fluoro-benzyl)-methoxy-amide], the inhibition at 20 µM is 99.3%.

As for `CON(Cc1ccccc1OC(C)C)C(=O)C1=C(O)C(=O)N(C)C1` [Compound 66, 4-Hydroxy-1-methyl-5-oxo-2,5-dihydro-1H-pyrrole-3-carboxylic acid (2-isopropoxy)-methoxy-amide], the inhibition at 20 µM was 99%.

As to `COC(=O)c1ccc(CN(OC)C(=O)C2=C(O)C(=O)N(C)C2)cc1` [Compound 67, 4-{[(4-Hydroxy-1-methyl-5-oxo-2,5-dihydro-1H-pyrrole-3-carbonyl)-methoxy-amino]-methyl}-benzoic acid methyl ester], the inhibition at 20 µM turned out to be 96.5%.

For `CON(Cc1ccc(C(=O)OC(C)(C)C)cc1)C(=O)C1=C(O)C(=O)N(C)C1` [Compound 68-A, 4-{[(4-Hydroxy-1-methyl-5-oxo-2,5-dihydro-1H-pyrrole-3-carbonyl)-methoxy-amino]-methyl}-benzoic acid tert-butyl ester], the inhibition at 20 µM came to 4.5%.

In the case of `CON(C(=O)C1=C(O)C(=O)N(C)C1)C(c1ccc(F)cc1)c1ccc(F)cc1` [Compound 73, 4-Hydroxy-1-methyl-5-oxo-2,5-dihydro-1H-pyrrole-3-carboxylic acid [bis-(4-fluoro-phenyl)-methyl]-methoxy-amide], the inhibition at 20 µM was 10%.

As to `CN1CC(C(=O)N(Cc2ccc(F)cc2)Cc2ccc(F)cc2)=C(O)C1=O` [Compound 76, 4-Hydroxy-1-methyl-5-oxo-2,5-dihydro-1H-pyrrole-3-carboxylic acid bis-(4-fluoro-benzyl)-amide], the inhibition at 20 µM was determined as 96%.

With `CN1CC(C(=O)N(Cc2ccc(Cl)cc2)Cc2ccc(Cl)c(Cl)c2)=C(O)C1=O` [Compound 77, 4-Hydroxy-1-methyl-5-oxo-2,5-dihydro-1H-pyrrole-3-carboxylic acid (4-chloro-benzyl)-(3,4-dichloro-benzyl)-amide], the inhibition at 20 µM is 99.8%.

For the compound `CN1CC(C(=O)N(C)Cc2ccccc2)=C(O)C1=O` [Compound 79, 4-Hydroxy-1-methyl-5-oxo-2,5-dihydro-1H-pyrrole-3-carboxylic acid benzyl-methyl-amide], the inhibition at 20 µM was determined as 92.4%.
